Patent US9199976B2, “Haematopoietic-prostaglandin D2 synthase inhibitors” (The University of Queensland, priority 2010, dated 2015)

Tests used:
[1] = system: PGD2 production in mouse primary bone marrow-derived macrophages (BMM); assay: PGD2 production in LPS-activated BMM (EIA); format: cell-based
Procedure: All bone marrow-derived macrophages (BMM) were obtained by culturing bone marrow cells from the femurs of 6 to 8 week old C57BL/6 male mice in RPMI 1640 medium (Invitrogen Life Technologies, Carlsbad, Calif., USA) supplemented with 10% Fetal calf serum (Invitrogen) 20 U/ml penicillin and 20 μg/ml streptomycin (Invitrogen), 2 mM L-glutamine (Glutamax-1, Invitrogen) in the presence of 10^4 U/ml (100 ng/mL) recombinant human CSF-1 (a gift from Chiron, Emeryville, Calif.) on bacteriological plastic plates for 7 days. The human megakaryocytic cell line MEG-01S was obtained from the American Type Culture Collection. MEG-01S were maintained in the same media as for BMM, supplemented with 1 mM Sodium Pyruvate (Invitrogen). […] The average PGD2 production from three independent experiments plus SEM is shown. * indicates p<0.05 versus LPS treatment alone. (Student's t test).

[2] = system: LPS-inducible PGE2 production from BMM; assay: PGE2 production in LPS-activated BMM (EIA); format: cell-based; conditions: LPS-activated mouse BMM, 24 h
Procedure: (§1) All bone marrow-derived macrophages (BMM) were obtained by culturing bone marrow cells from the femurs of 6 to 8 week old C57BL/6 male mice in RPMI 1640 medium (Invitrogen Life Technologies, Carlsbad, Calif., USA) supplemented with 10% Fetal calf serum (Invitrogen) 20 U/ml penicillin and 20 μg/ml streptomycin (Invitrogen), 2 mM L-glutamine (Glutamax-1, Invitrogen) in the presence of 10^4 U/ml (100 ng/mL) recombinant human CSF-1 (a gift from Chiron, Emeryville, Calif.) on bacteriological plastic plates for 7 days. The human megakaryocytic cell line MEG-01S was obtained from the American Type Culture Collection. MEG-01S were maintained in the same media as for BMM, supplemented with 1 mM Sodium Pyruvate (Invitrogen).
(§2) BMM were seeded overnight at 2×10^5 cells/ml in 24 well plates before treatment with compound at either 10 μM or 0.1-100 μM for 24 h in the presence or absence of lipopolysaccharide (LPS) from Salmonella Minnesota (Sigma-Aldrich) at a final concentration of 10 ng/ml. […] Supernatants were collected and samples were analysed for PGD2 using Prostaglandin D2 Mox Express EIA kits, PGE2 using Prostaglandin E2 Express EIA kits, the prostacyclin derivative 6-keto PGF1α using the 6-keto Prostaglandin F1α EIA Kit and the Thromboxane A2 derivative TXB2 using the Thromboxane B2 Express EIA kit (Cayman Chemical) according to the manufacturer's instructions. […]

[3] = system: LPS-inducible 6-keto PGF1α (prostacyclin derivative) production from BMM; assay: 6-keto PGF1α production in LPS-activated BMM (EIA); format: cell-based; conditions: LPS-activated mouse BMM, 24 h
Procedure: as §1, §2

[4] = system: LPS-inducible TXB2 (thromboxane A2 derivative) production from BMM; assay: TXB2 production in LPS-activated BMM (EIA); format: cell-based; conditions: LPS-activated mouse BMM, 24 h
Procedure: as §1, §2

BMM = BMM cell viability by MTT assay; format: cell-based, mouse; conditions: LPS 10 ng/ml, 24 h, 10-100 μM
Procedure: as §1
(§3) Known inhibitors 1 and 2, along with compound 3, were used to treat BMM at three doses (10, 30, 100 μM) in the presence of LPS for 24 h and cell viability was measured by MTT assay. BMM were seeded at 1×10^5 cells/well in 96 well plates and treated for 24 h with LPS (10 ng/ml) and compounds at 10, 30 and 100 μM. MEG-01S were PMA differentiated overnight before compounds were added for a further 24 h at 10, 30 and 100 μM. Cell viability was measured by MTT (Sigma-Aldrich) assay as described previously (Irvine, FASEB J, 2006).

[5] = system: PGD2 production from MEG-01S human megakaryocytes; assay: A23187-inducible PGD2 production in PMA-differentiated MEG-01S (EIA); format: cell-based; conditions: 0-100 μM
Procedure: as §1, §2

MEG-01S cells = assay: MEG-01S cell viability by MTT assay; format: cell-based, human; conditions: 24 h, 0-100 μM
Procedure: as §1, §3
The effect of the compounds on MEG-01S cell viability was measured by MTT assay after 24 h treatment across the concentration range 0-100 μM of compounds (FIG. 3B). Data represent the average of 4 independent experiments plus SEM.

[6] = Rat pharmacokinetics, plasma concentration after oral dosing; format: in vivo, Sprague Dawley rat; conditions: single oral 40 mg/kg; for Concentration (individual rat): rat plasma
Procedure: Male adult Sprague Dawley rates (˜165 g) received a single oral bolus dose of 40 mg/kg of compound 3 in a 0.5% methylcellulose/0.1% Tween80 by oral gavage. Rats were sacrificed when collecting blood and spleen samples just prior to dosing and at 0.5 hours, 2 h, 8 h and 24 h (n=3 rats per time point), and the plasma concentration of compound 3 and the spleen PGD2 concentration was measured at each time point.
Blood samples were removed and kept cold at approximately 4° C. immediately after collection to minimize degradation and centrifuged as soon as possible at approximately 4000×g for 10 min. The plasma was transferred to a clean, pre-labelled polypropylene tube and frozen. Samples were stored at −20° C. as soon as possible after collection to minimise degradation of the test item.
Plasma concentrations of 3 were determined using a screening LC-ms/ms method developed using the following parameters:
Samples were analysed alongside plasma standards. Concentration data were determined by back calculation from standard curve.

H-PGDS = H-PGDS (Homo sapiens (Human), UniProt O60760); assay: H-PGDS catalyzed conjugation of GSH and CDNB, enzyme inhibition assay; format: biochemical; conditions: 50 μM compound; mean ± standard error of triplicate experiments; read-out: I[50], percent inhibition at 50 μM
Chain of H-PGDS (O60760 whole entry): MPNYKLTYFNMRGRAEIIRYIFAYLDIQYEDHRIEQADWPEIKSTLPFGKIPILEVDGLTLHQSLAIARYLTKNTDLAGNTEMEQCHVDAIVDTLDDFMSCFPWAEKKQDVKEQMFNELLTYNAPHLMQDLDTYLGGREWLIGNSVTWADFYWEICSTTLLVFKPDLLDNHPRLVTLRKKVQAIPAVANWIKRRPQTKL
Procedure: H-PGDS was expressed and purified as described previously (Jowsey, 2001). Briefly, H-PGDS was expressed in Escherichia coli strain BL21 DE3 transformed with the pET17b HPGDS expression construct, grown overnight at 37° C. in 250 ml of Luria-Bertani medium supplemented with 100 μg/ml ampicillin. After 24 h, without induction, bacteria were harvested by centrifugation at 5000 g for 20 min at 4° C.; cell pellets were kept at −70° C. until required. Cells were resuspended in 25 ml of ice-cold phosphate buffered saline (PBS), pH 7.4, containing 1 mM DTT, 0.5% Triton X-100 and EDTA-free protease inhibitor tablets (F. Hoffmann-La Roche, Dee Why, NSW, Australia); and incubated with rotation for 30 mins at 4° C. Cells were then lysed by sonication at 90-100 W over 3×1 min intervals, while incubated on ice; the lysate clarified by centrifugation at 18000 g for 10 min at 4° C.
The supernatant was then applied to a GSTPrep FF 16/10 column pre-equilibrated with PBS, pH 7.4, and 1 mM DTT, at 0.4 ml/minute using an AKTA explorer 100 (GE Healthcare, Rydalmere, NSW, Australia), then washed with 5 column volumes of the same buffer at 1 ml/min. Bound H-PGDS was eluted in 5 column volumes of 15 mM reduced glutathione in 50 mM Tris, pH 9.0, at 0.5 ml/min, and dialysed against 100 volumes of 5 mM TrisCl, pH 8.0. The protein was concentrated to 20 mg/ml, as determined by the method of Bradford (Bradford, 1976) using an Amicon Ultra-4 centrifugal filter device (Millipore, North Ryde, NSW, Australia) following manufacturers recommendations. Glycerol was added to a final concentration of 10% (v/v) prior to storage at −20° C.
The H-PGDS catalyzed conjugation of GSH and 1-chloro-2,4-dinitrobenzene (CDNB) was used as the biochemical assay for enzyme inhibition. Reactions were performed in 96 well plate format, and product formation was followed at A340 nm over a 10 min interval at 25° C. using a POWERWAVE XS microplate scanning spectrophotometer (Bio-Tek Instruments, Winooski, Vt., USA). Reactions were performed in 0.1 M Tris HCl, pH 8.0 containing 2 mM MgCl2, 1 mM CDNB, 2 mM GSH, 2.5 ng/μ1 purified H-PGDS and 10% (v/v) ethanol in a 200 μl reaction volume. IC50 values were calculated from rates of conjugation activity determined at eight concentration points bracketing the IC50, where compound solubility allowed, and were corrected for background activity at the same solvent concentrations. All compounds were made up in 100% DMSO and diluted with 0.1 M Tris HCl, pH 8.0 with 2 mM MgCl2. I50 and IC50 values were determined at a final DMSO composition of no greater than 4% v/v for all compounds. Non-linear regression analysis and IC50 calculations were performed using GraphPad Prism version 4.0c.

NC(=O)[C@H](Cc1ccccc1)NC(=O)c1ccc(-c2cccs2)nc1 (stereo in doubt) [Compound 3, N-(1-amino-1-oxo-3-phenylpropan-2-yl)-6-(thiophen-2-yl)-nicotinamide]
differential effect in inhibition of PGD2 versus PGE2, 6-keto PGF1α or TXB2 (selectivity) ([1]; LPS-activated mouse BMM): striking selectivity
inhibition of PGD2 production ([1]; LPS-activated mouse BMM, 0-100 μM, 24 h): inhibited PGD2 production in the sub-micromolar range dose-dependently
inhibition of PGD2 levels at 1 μM ([1]; LPS-activated mouse BMM, 1 μM): significantly inhibiting
EC50 fold better than that estimated for compound 1 ([1]; LPS-activated mouse BMM, PGD2 production): ~30 fold
concentration above which PGE2 inhibition was observed [2]: above 10 μM
concentration above which 6-keto PGF1α inhibition was observed [3]: above 10 μM
concentration above which TXB2 inhibition was observed [4]: above 10 μM
effect on BMM cell viability (BMM): did not affect BMM viability
inhibition of A23187-inducible PGD2 production [5]: dose-dependently
effect on MEG-01S cell viability (MEG-01S cells): little effect
Concentration (individual rat) ([6]; 0.5 h): 177 ng/mL
Concentration (individual rat) ([6]; 24 h, BLOQ = below the lower limit of quantitation): BLOQ^2
oral bioavailability ([6]; rat): orally bioavailable

c1ccc(C(OC2CCN(CCCc3nnn[nH]3)CC2)c2ccccc2)cc1 [Compound 1]
effect on BMM cell viability (BMM): modest but significant effects
effect on MEG-01S cell viability (MEG-01S cells): little effect

c1ccc(-c2ncc(-c3cc[nH]n3)s2)cc1 [Compound 2]
EC50 ([1]; Mus musculus, Macrophage, 24 h, read-out: EC50 for inhibition of PGD2 production): ~160 nM
effect on BMM cell viability (BMM): modest but significant effects
effect on MEG-01S cell viability (MEG-01S cells): little effect

O=C(c1ccc(-c2cccs2)nc1)N1CCC(N2C(=O)OCc3ccccc32)CC1 [Compound 13, 1-(1-(6-(thiophen-2-yl)nicotinoyl)piperidin-4-yl)-1H-benzo[d][1,3]oxazin-2(4H)-one]
inhibition at 50 µM (H-PGDS): 87.9 ± 1.1%

NC(=O)[C@H](Cc1ccccc1)NC(=O)c1ccc(-c2ccc(C(=O)O)s2)nc1 [Compound 15]
inhibition at 50 µM (H-PGDS): 19.4 ± 1.4%

N#Cc1ccc(-c2ccc(C(=O)N[C@@H](Cc3ccccc3)C(N)=O)cn2)s1 [Compound 20]
inhibition at 50 µM (H-PGDS): 67.9 ± 1.6%

Cc1cc(-c2ccc(C(=O)N[C@@H](Cc3ccccc3)C(N)=O)cn2)sc1C#N [Compound 22]
inhibition at 50 µM (H-PGDS): 34.6 ± 2.1%
